Measurements published in article PMC4519317, “MsmK, an ATPase, Contributes to Utilization of Multiple Carbohydrates and Host Colonization of Streptococcus suis” (PLoS ONE, 2015).

Target: MsmK (Streptococcus suis, UniProt A0A0H3N1P0)
Details: 1 mM ATP, 10 mM MgCl2, 200 mM KCl, 50 mM PIPES/NaOH pH 6.8, 1 mM β-mercaptoethanol, 30°C, 1 h; labelled compound

MsmK, sequence (A0A0H3N1P0 entry or part of it): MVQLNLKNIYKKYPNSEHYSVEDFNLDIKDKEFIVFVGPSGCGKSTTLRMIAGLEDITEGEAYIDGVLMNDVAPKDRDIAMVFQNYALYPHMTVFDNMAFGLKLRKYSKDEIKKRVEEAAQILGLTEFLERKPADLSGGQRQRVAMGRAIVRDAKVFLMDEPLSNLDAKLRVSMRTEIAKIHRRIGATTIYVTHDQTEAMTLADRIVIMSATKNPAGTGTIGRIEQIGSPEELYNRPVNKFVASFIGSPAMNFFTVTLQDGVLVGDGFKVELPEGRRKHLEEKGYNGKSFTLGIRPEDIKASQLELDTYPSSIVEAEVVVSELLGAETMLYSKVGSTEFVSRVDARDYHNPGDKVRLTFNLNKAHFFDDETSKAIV

## Nc1ncnc2c1ncn2[C@@H]1O[C@H](COP(=O)(O)OP(=O)(O)OP(=O)(O)O)[C@@H](O)[C@H]1O [ATP]
  radiometric TLC of ADP formed from [α-32P]-ATP: ATPase assays showed that the recombinant protein could hydrolyze ATP to ADP
